The results in this text go back to patent publication US7972815B2, “Method of producing sugar chain using human G4 polypeptide” (Kyowa Hakko Kirin Co., Ltd., priority 1999, dated 2011).

SMILES strings stand for the structures.

Holding throughout (type): biochemical
Assay [1] deals with T1, β1,3-N-acetylglucosaminyl transferase (G3) (Homo sapiens, UniProt Q9NY97).
T1 construct: made in house; host or cells: Sf21 insect cells infected with recombinant baculovirus from pVL1393-F2G3
T1 sequence (Q9NY97 31-397): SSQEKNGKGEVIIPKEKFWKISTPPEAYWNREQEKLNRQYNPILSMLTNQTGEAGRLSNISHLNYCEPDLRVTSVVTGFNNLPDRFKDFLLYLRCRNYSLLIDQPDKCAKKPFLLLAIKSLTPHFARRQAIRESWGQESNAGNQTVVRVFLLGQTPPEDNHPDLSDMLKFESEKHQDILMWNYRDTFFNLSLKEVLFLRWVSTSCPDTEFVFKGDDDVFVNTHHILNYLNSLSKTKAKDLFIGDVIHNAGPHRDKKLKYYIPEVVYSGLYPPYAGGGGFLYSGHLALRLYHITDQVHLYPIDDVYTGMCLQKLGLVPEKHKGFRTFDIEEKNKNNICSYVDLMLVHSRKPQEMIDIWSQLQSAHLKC
In words: Substrate specificity of G3 with unlabeled oligosaccharides. The following applies: 2 hours; for Relative activity (%) G3: unlabeled substrate, 37° C., activity for LNnT defined as 100%. As to the method: The reaction using the glycosyltransferase was carried out as follows. The reaction was carried out at 37° C. for 16 hours in 40 μl of an assay solution [50 mmol/l MOPS (pH 7.5), 5 mmol/l UDP-GlcNAc (SIGMA), 5 mmol/l MnCl2, […] and 10 μl of the above eluate]. Next, the reaction solution was treated at 100° C. for 5 minutes and then centrifuged at 10,000×g for 20 minutes to obtain the supernatant, and a portion thereof was analyzed using HPAE/PAD (High Performance Anion Pulsed Amperometoric Detection; manufactured by DIONEX). The specific method was carried out in the usual way [Anal. Biochem., 189, 151 (1990), J. Biol. Chem., 273, 433 (1998)].
As substrates, the following unlabeled oligosaccharides were used: lactose (Galβ1-4Glc), N-acetyllactosamine (Galβ1-4GlcNAc, hereinafter referred to as “LacNAc” in some cases), LNnT, LNT and lacto-N-neohexaose (Galβ1-4GlcNACβ1-3Galβ1-4GlcNAcβ1-3Galβ1-4Glc, hereinafter referred to as “LNnH”).
(§1) For each substrate, the reaction was carried using the assay solution with or without UDP-GlcNAc (sugar donor), and then HPLC was carried out and peaks appeared only in the assay solution containing UDP-GlcNAc were defined as products.
In identifying the product, coincidence of its elution time with that of a standard sugar chain was used as the index. As the standard sugar chains, GlcNAcβ1-3Galβ1-4Glc, GlcNAcβ1-3Galβ1-4GlcNAc and GlcNAcβ1-3Galβ1-4GlcNAcβ1-3Galβ1-4Glc were used.
Substrate specificity of the FLAG peptide-fused G3 polypeptide was examined by the method shown in Example 11(2). The enzyme reaction was carried out at 37° C. for 2 hours.

For assay [2], the target named is T2, β1,3-N-acetylglucosaminyl transferase (G4) (Homo sapiens, UniProt Q9Y2A9, R328H).
T2 construct: made in house; host or cells: Sf21 insect cells infected with recombinant baculovirus from pVL1393-F2G4
T2 sequence (Q9Y2A9 38-372 R328H): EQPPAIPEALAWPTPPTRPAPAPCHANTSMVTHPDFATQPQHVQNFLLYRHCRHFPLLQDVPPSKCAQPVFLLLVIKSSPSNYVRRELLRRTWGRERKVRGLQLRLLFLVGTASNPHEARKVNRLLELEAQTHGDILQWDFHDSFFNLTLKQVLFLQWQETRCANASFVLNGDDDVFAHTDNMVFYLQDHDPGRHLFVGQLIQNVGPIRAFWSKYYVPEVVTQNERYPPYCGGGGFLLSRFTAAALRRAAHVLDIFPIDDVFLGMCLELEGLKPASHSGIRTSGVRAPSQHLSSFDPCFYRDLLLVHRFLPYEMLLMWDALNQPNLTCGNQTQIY
In words: Substrate specificity of G4 with pyridylaminated oligosaccharides. The following applies: for Relative activity (%): pyridylaminated substrate 50 μmol/l, 37° C., 14.5 hours, activity on LNnT defined as 100%. How it is done:
Examination on the substrate specificity of a β1,3-N-acetylglucosaminyl transferase (G4) was carried out by using the FLAG peptide-fused G4 polypeptide produced as a secreted form in Example 10.
(§2) The method shown in Example 8 was used as the activity measuring method. Specifically, after the reaction at 37° C. for 14.5 hours in 30 μl of an assay solution [200 mmol/l of MOPS (pH 7.5), 20 mmol/l of UDP-GlcNAc (SIGMA), 20 mmol/l of MnCl2, 50 μmol/l of pyridylaminated sugar chain substrate and 15 μl of the above eluate], products were detected by HPLC. As substrates, LNnT, lacto-N-tetraose (Galβ1-3GlcNAcβ1-3Galβ1-4Glc, hereinafter referred to as “LNT”), lacto-N-fucopentaose II (Galβ1-3(Fucα1-4)GlcNAcβ1-3Galβ1-4Glc, hereinafter referred to as “LNFP-II”), lacto-N-fucopentaose III (Galβ1-4(Fucα1-3)GlcNAcβ1-3Galβ1-4Glc, hereinafter referred to as “LNFP-III”), lacto-N-fucopentaose V (Galβ1-3GlcNAcβ1-3Galβ1-4(Fucα1-3)Glc, hereinafter referred to as “LNFP-V”) and lacto-N-difucohexaose II (Galβ1-3(Fucα1-4)GlcNAcβ1-3Galβ1-4(Fucα1-3)Glc, hereinafter referred to as “LNDFH-II”) (all manufactured by Oxford Glycosystems) were used after fluorescently labeling them with aminopyridine. Fluorescence labeling of these substrates were carried out in accordance with the usual method [Agric. Biol. Chem., 54, 2169 (1990)].
as §1
(§3) The assay solution after completion of the reaction was treated at 100° C. for 5 minutes and then centrifuged at 10,000×g for 5 minutes, and a portion (5 μl) of the thus obtained supernatant was applied to HPLC.
(§4) The HPLC was carried out by using TSK-gel ODS-80Ts column (4.6×300 mm; Tosoh); 0.02 mol/l ammonium acetate buffer (pH 4.0) was used as the eluate at an elution temperature of 50° C. and at a flow rate of 0.5 ml/min.
(§5) Products were detected by using a fluorescence spectrum photometer FP-920 (JASCO Corporation) (excitation wavelength 320 nm, radiation wavelength 400 nm).

Assay [3] addresses T1, β1,3-N-acetylglucosaminyl transferase (G3). The assay can be described thus: Substrate specificity of G3 with pyridylaminated oligosaccharides. Particulars: 2 hours; for Relative activity (%): pyridylaminated substrate, 37° C., activity on LNnT defined as 100%. How it is done: as §2, §1, §3, §4, §5
Substrate specificity of a β1,3-N-acetylglucosaminyl transferase (G3) was examined using the FLAG peptide-fused G3 polypeptide purified in Example 14.
Substrate specificity of the FLAG peptide-fused G3 polypeptide was examined by the method shown in Example 11(1). The reaction was carried out at 37° C. for 2 hours.

[4] abbreviates: pyridylaminated LNnT as substrate.

Consider `CC(=O)N[C@H]1[C@H](O[C@H]2[C@@H](O)[C@@H](CO)O[C@@H](O[C@H]3[C@H](O)[C@@H](O)C(O)O[C@@H]3CO)[C@@H]2O)O[C@H](CO)[C@@H](O[C@@H]2O[C@H](CO)[C@H](O)[C@H](O)[C@H]2O)[C@@H]1O` (mixture of isomers) [LNnT, lacto-N-neotetraose], for which, in assay [1] (unlabeled LNnT as substrate), the “conversion ratio of a substrate into the product” value was 4.6%. Besides, in assay [1], the “Relative activity (%) G3” value was 100%. In addition, the “conversion ratio of the substrate into the product” value in assay [2] (setting [4]) came to 12.9%. For the same compound, the “Relative activity (%)” value in assay [2] and in assay [3] was 100% throughout. For the same compound, the “conversion efficiency of the substrate into the product” value in assay [3] (setting [4]) stood at 82.5%.

For `CC(=O)N[C@H]1[C@H](O[C@H]2[C@@H](O)[C@@H](CO)O[C@@H](O[C@H]3[C@H](O)[C@@H](O)C(O)O[C@@H]3CO)[C@@H]2O)O[C@H](CO)[C@@H](O)[C@@H]1O[C@@H]1O[C@H](CO)[C@H](O)[C@H](O)[C@H]1O` (stereo partly drawn) [LNT, lacto-N-tetraose], in assay [1], the “Relative activity (%) G3” value came to 27%. Further, the results for the “Relative activity (%)” value in assay [2] and in assay [3] were 84.5% and 3.7%, respectively.
